pIC50: −log10 of the molar value. Peptide text beside a SMILES is read from it. * marks the point of attachment. Cbz = O=C(OCc1ccccc1)*
Experiments:
PIAS4 = PIAS4 protein half-life study (cycloheximide) in MLE cells; format: cell-based, murine; conditions: addition of proteasomal or lysosomal inhibitor; FIG. 9B
Description: FIG. 9A. PIAS4 protein half-life study in MLE cells transfected with Empty plasmid or Ubiquitin plasmid. FIG. 9B. PIAS4 protein half-life study with MG132 or Leupeptin. FIG. 9C. Immunoblots showing levels of PIAS4 proteins and V5 after ectopic FIEL1 or UBE3B plasmid expression. FIG. 9D. Immunoblots showing levels of FIEL1 proteins after ectopic FIEL1 plasmid expression in MLE, HeLa, and 293T cells. FIG. 9E. Immunoblots showing levels of PIAS4 proteins and V5 after ectopic FIEL1 plasmid expression in HeLa and 293T cells. FIG. 9F. MLE cells were transfected with an inducible control or FIEL1 plasmid under control of exogenous doxycycline. Cells were treated with doxycycline in a dose dependent manner. Cells were then collected and cell lysates were immunoblotted for FIEL1 and PIAS4. FIG. 9G. MRC5 cells were exposed to TGFβ for 24 h before being assayed for PIAS4 and FIEL1 protein half-lives.
(§1) FIG. 15A. Diagram of the BC-1485 synthesis process. FIGS. 15B-15C. Docking studies of the lead compound, BC-1485, interacting with the FIEL1-HECT domain. FIG. 15D. MRC5 cells were treated with the compound at various doses; cells were also co-treated with TGFβ at 2 ng/ml. 18 h later, cells were collected and assayed for α-SMA expression. FIG. 15E. MRC5 cells were seeded in 35 mm glass bottom dishes before co-treatment with TGFβ at 2 ng/ml and BC-1480 or BC1485 at 5μM. FIG. 15F. PIAS4 protein half-life determination after BC-1480 or BC1485 treatment at 5μM for 18 h. FIG. 15G. PIAS4 and KIAA0317 mRNA analysis after BC1485 treatment for 18 h.
MLE cells were cultured in Dulbecco's Modified Eagle Medium-F12 (Gibco) supplemented with 10% fetal bovine serum (DMEM-10). 293T cells were cultured in Dulbecco's Modified Eagle Medium (Gibco) supplemented with 10% fetal bovine serum (DMEM-10). MRC5 cells were cultured in Eagle's Minimum Essential Medium (Gibco) supplemented with 10% fetal bovine serum (EMEM-10). For protein expression in MLE cells, nucleofection was used following Amaxa's protocol. For protein overexpression in 293T cells, Fugene6HD transfection reagents were used following the manufacturer's protocol. […]

[1] = tested on: bleomycin-induced lung injury in C57BL/6J mice; test: Bleomycin lung fibrosis model in mice; format: in vivo; conditions: bleomycin 0.05 U i.t., 7-21 days; estimated 5 mg/kg/d
Experimental: (§2) FIG. 7A. […] FIG. 7B. Structures of the BC-1480 backbone and lead compound BC-1485. FIG. 7C. FIEL1 protein was HIS-purified from FIEL1 expression in 293T cells using cobalt beads. Beads were then extensively washed prior to exposure to BC-1480 or BC-1485 at different concentrations (10^−4 to 100 μM). Purified PIAS4 protein was then incubated with drug-bound FIEL1 beads overnight. Beads were washed, and proteins were eluted and resolved on SDS-PAGE. The relative amounts of PIAS4 detected in the pull-downs was normalized to loading and quantified (n=2). FIG. 7D. MLE cells were exposed to BC-1480 or BC-1485 at various concentrations for 18 h. Cells were then collected and immunoblotted. FIGS. 7E-J. C57BL/6J mice were administered with bleomycin (0.05 U) for 7-21 days. Compounds BC-1480 and BC-1485 were given to mice through drinking water with an estimated dose of 5 mg/kg/d. Mice were euthanized, and lungs were lavaged with saline, harvested, and then homogenized. Lavage proteins, CXCL1, and total cell count were measured in FIGS. 7E-G. H. Survival studies of mice that were given bleomycin and compound treatments. Mice were carefully monitored over time; moribund, preterminal animals were immediately euthanized and recorded as deceased. Kaplan-Meier survival curves were generated using SPSS software (p<0.01 compared to Vehicle). Vehicle: n=24, BC-1480: n=13, BC-1485: n=12. FIG. 7I. Hydroxyproline contents were measured in lungs from 7, 14, and 21d after bleomycin challenge. FIG. 7J. Trichrome staining was performed on lung samples from E. Original magnification, ×10. *p<0.05 compared to Vehicle (t-test). Data are an average of two experiments (FIGS. 7E-J, 4-8 mice/group)
C57BL/6J mice were administered i.t. with bleomycin (0.05 U) for 7-21 days. Compounds BC-1480 and BC-1485 were given to mice through drinking water with an estimated dose of 5 mg/kg/d. Mice were then euthanized, and lungs were lavaged with saline, harvested, and then homogenized. Lavage IL-6 was measured in (FIG. 16A). Lavage cells were also processed for Wright-Giemsa stain; Lavage macrophages, neutrophils and lymphocytes were counted and graphed (FIGS. 16B-16D). H&E staining was performed on lung samples from A. Original magnification, ×10. *p<0.05 compared to Vehicle (t test). Data are an average of two experiments (A-E, 4-8 mice/group).
Murine lungs were dried and weighed prior to digestion with HCl. Hydroxyproline concentrations were measuring using methods previously described in Kesava Reddy et al., Clinical Biochemistry, 29(3): 225-229 (1996), and Neuman et al., J. of Biol. Chem., 184(1): 299-306 (1950). Hydroxyproline content was normalized to dry lung weight.
All procedures were approved by the University of Pittsburgh Institutional Animal Care and Use Committee. For fibrosis studies, male C57BL/6J mice were deeply anesthetized using a ketamine/xylazine mixture, and the larynx was well visualized under a fiber optic light source before endotracheal intubation with a 3/400 24-gauge plastic catheter. 10^7 CFU of lentivirus encoding genes for Empty (E), FIEL1, CON shRNA, or KIAA0317 shRNA was given i.t. for 144 h before administration of bleomycin (0.02 U˜0.05 U i.t.) for up to 21 days. Animals were euthanized and assayed for BAL protein, cell count, cytokines, and lung infiltrates. Survival studies were performed on mice that were given bleomycin (0.02 U˜0.05 U i.t.). Mice were carefully monitored over time; moribund, preterminal animals were immediately euthanized and recorded as deceased. For drug studies, mice were deeply anesthetized as above. Bleomycin (0.05 U i.t.) was given i.t. before BC-1480 or BC-1485 (5 mg/kg/d) was administered to the mice through their drinking water. 7-21d later, animals were euthanized and analyzed as above.

[2] = tested on: α-SMA expression in MRC5 cells; test: α-SMA expression in MRC5 cells co-treated with TGFβ; format: cell-based, human; conditions: Homo sapiens; MRC5 cells, TGFβ 2 ng/ml, 18 h; FIG. 15D; read-out: IC50 for decrease of α-SMA expression
Experimental: as §1
MLE cells were cultured in Dulbecco's Modified Eagle Medium-F12 (Gibco) supplemented with 10% fetal bovine serum (DMEM-10). 293T cells were cultured in Dulbecco's Modified Eagle Medium (Gibco) supplemented with 10% fetal bovine serum (DMEM-10). MRC5 cells were cultured in Eagle's Minimum Essential Medium (Gibco) supplemented with 10% fetal bovine serum (EMEM-10). For protein expression in MLE cells, nucleofection was used following Amaxa's protocol. For protein overexpression in 293T cells, Fugene6HD transfection reagents were used following the manufacturer's protocol. For protein expression in MRC5 cells, MRC-5 Cell Avalanche™ Transfection Reagent was used following manufacturer's protocol. Cells were treated with TGFβ at 0-2 ng/ml for 0-18 h. For FIEL1, PKCξ, or GSK3β knockdown studies in cells, scramble shRNA, KIAA0317, PKCξ, or GSK3β shRNA were used to transfect cells for 48 h. For drug treatment, compounds were solubilized in DMSO before being added to the cells for up to 18 h. Cell lysates were prepared by brief sonication in 150 mM NaCl, 50 mM Tris, 1.0 mM EDTA, 2 mM dithiothreitol, 0.025% sodium azide, and 1 mM phenylmethylsulfonyl fluoride (Buffer A) at 4° C. For half-life study, MLE cells were exposed to cycloheximide (40 μg/ml) in a time dependent manner for up to 8 h. Cells were then collected and immunoblotted.

FIEL1/PIAS4 interaction = molecular target: T1, FIEL1/PIAS4 interaction (Homo sapiens, UniProt O15033); test: In vitro drug binding assay: PIAS4 pull-down on drug-bound FIEL1 beads; conditions: FIG. 7
T1 construct: made in house; host or cells: 293T cells (FIEL1)
T1 sequence (O15033 1-789 isoform O15033-2): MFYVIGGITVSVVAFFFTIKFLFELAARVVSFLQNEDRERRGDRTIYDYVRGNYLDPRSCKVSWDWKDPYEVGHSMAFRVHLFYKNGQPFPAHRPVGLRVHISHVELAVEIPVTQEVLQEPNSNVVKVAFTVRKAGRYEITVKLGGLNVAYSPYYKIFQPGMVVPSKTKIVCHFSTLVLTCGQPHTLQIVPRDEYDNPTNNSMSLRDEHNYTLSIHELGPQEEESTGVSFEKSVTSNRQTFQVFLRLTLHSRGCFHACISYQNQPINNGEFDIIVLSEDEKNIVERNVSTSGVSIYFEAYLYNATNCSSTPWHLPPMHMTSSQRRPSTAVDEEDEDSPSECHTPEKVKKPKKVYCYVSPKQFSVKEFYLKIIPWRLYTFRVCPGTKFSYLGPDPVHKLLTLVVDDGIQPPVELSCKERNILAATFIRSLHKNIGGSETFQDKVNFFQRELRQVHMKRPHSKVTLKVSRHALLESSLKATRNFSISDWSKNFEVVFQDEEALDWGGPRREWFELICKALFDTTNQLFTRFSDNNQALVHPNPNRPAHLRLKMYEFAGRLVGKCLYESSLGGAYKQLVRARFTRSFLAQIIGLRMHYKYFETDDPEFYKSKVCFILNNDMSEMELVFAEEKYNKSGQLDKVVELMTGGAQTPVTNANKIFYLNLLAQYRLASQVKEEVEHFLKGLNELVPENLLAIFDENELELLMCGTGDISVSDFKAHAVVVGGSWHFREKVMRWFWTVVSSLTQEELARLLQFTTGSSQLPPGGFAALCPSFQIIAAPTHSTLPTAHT
Experimental: as §2
FIEL1 protein was HIS-purified from FIEL1 expression 293T cells using cobalt beads. Beads were then extensively washed prior to exposure to BC-1480 or BC-1485 at different concentrations (10^−4 to 100 μM). Purified recombinant PIAS4 protein was then incubated with drug-bound FIEL1 beads overnight. […] The relative amounts of PIAS4 detected in the pull-downs were normalized to loading and quantified.

SMILES	PIAS4 protein half-life (PIAS4)	lung (pulmonary) fibrosis [1]	pIC50 [2]	inhibition of FIEL1 and PIAS4 interaction (FIEL1/PIAS4 interaction)
CC(=O)N[C@@H](CC(C)C)C(=O)N[C@@H](CC(C)C)C(=O)N[C@H](C=O)CCCNC(=N)N [Leupeptin]	an effect unobserved			
O=C(O)c1ccc(NS(=O)(=O)c2ccc3[nH]c(=O)[nH]c3c2)cc1 [BC-1480, 4-(2-oxo-2,3-dihydro-1H-benzo[d]imidazole-5-sulfonamido)benzoic acid]		inhibition of pulmonary fibrosis	~5.40	inhibition of FIEL1 and PIAS4 interaction
CC(C)C[C@@H](C=O)NC(=O)[C@H](CC(C)C)NC(=O)[C@H](CC(C)C)NC(=O)OCc1ccccc1 [MG132] (Cbz-Leu-Leu-Leu-aldehyde)	significantly increased			
